Among the test systems are SNB-75; M14; ACHN; SF-268; HT-29; SR; OVCAR-5; UO-31; SN12C; IGROV-1; CAKI-1; BT-549; KM12; NCI-H23; HOP-62; TK-10; MDA-N; SK-MEL-28; SF-295; T47D.
Assay in all cases: NCI-60 cell line screen, 48 h

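A five-concentration, 48-hour dose response in 96-well plates underlies each endpoint, interpolated linearly between surrounding concentrations. GI50 is the concentration that inhibits growth by half.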 Activity calls are given as the source filed them. Cut-off read from the data, not from the text of the source: active = GI50 up to about 1.1 µM and inactive = higher.

Consider `O=C(Nc1ccccc1)c1cc(S(=O)(=O)Nc2n[nH]c(=O)[nH]2)c(SSc2cc(Cl)c(C(=O)Nc3ccccc3)cc2S(=O)(=O)Nc2n[nH]c(=O)[nH]2)cc1Cl`, for which the GI50 in the experiment with SNB-75, with M14, in the experiment on ACHN, in the experiment with SF-268, in the experiment on HT-29 and in the experiment with SR was > 100 µM (inactive) throughout. Besides, the GI50 in the experiment with OVCAR-5, in the experiment on UO-31, with SN12C, in the experiment with IGROV-1, in the experiment with CAKI-1 and with BT-549 was > 100 µM (inactive) each time. Besides, the GI50 in the experiment with KM12, with NCI-H23, in the experiment with HOP-62, in the experiment on TK-10, in the experiment with MDA-N and in the experiment on SK-MEL-28 was > 100 µM (inactive) each time. Moreover, the GI50 with SF-295 is > 100 µM (inactive).

`O=C1CC2C=CC(O)C(C1)C2` (configuration not stated): the GI50 is 72.6 µM (inactive) with SNB-75; > 100 µM (inactive) in the experiment on M14; > 100 µM (inactive) with ACHN; > 100 µM (inactive) in the experiment on SF-268; > 100 µM (inactive) in the experiment with HT-29; < 0.01 µM (active) with SR. The GI50 in the experiment on OVCAR-5, in the experiment on UO-31, with SN12C, with T47D, in the experiment on IGROV-1 and in the experiment on KM12 was > 100 µM (inactive) each time. The GI50 with NCI-H23, in the experiment on HOP-62, in the experiment with TK-10, in the experiment on MDA-N, in the experiment on SK-MEL-28 and with SF-295 was > 100 µM (inactive) each time.

With `CCOn1cc(C[C@@]2(O)C(=O)OC3[C@@H](O)CO[C@@]32O)c2ccccc21` (some centres not stated), the GI50 in the experiment with SNB-75, in the experiment on M14, in the experiment with ACHN, with SF-268, in the experiment on HT-29 and in the experiment on SR was > 100 µM (inactive) each time. The GI50 in the experiment on OVCAR-5, with UO-31, with SN12C, with T47D, in the experiment on IGROV-1 and in the experiment on CAKI-1 was > 100 µM (inactive) each time. Besides, the GI50 in the experiment on BT-549, in the experiment with KM12, in the experiment with NCI-H23, with HOP-62, in the experiment on TK-10 and with SK-MEL-28 was > 100 µM (inactive) each time. Besides, in the experiment with SF-295, the GI50 was > 100 µM (inactive).

With `O=C(Cc1nc2ccc(C(=O)c3ccccc3)cc2nc1O)C(=O)Nc1ccc(Br)cc1`, the GI50 in the experiment on SNB-75 was 38 µM (inactive); with M14, > 100 µM (inactive); in the experiment on ACHN, 71.8 µM (inactive); with SF-268, > 100 µM (inactive); with HT-29 it was > 100 µM (inactive); in the experiment on OVCAR-5, > 100 µM (inactive). Also, the GI50 in the experiment with UO-31 was 57.7 µM (inactive); in the experiment with SN12C, > 100 µM (inactive); with T47D, > 100 µM (inactive); in the experiment on IGROV-1 it was > 100 µM (inactive); in the experiment on CAKI-1 it was 40.1 µM (inactive); in the experiment on BT-549, > 100 µM (inactive). In addition, the GI50 in the experiment with KM12 was 34.8 µM (inactive); with NCI-H23 it was > 100 µM (inactive); in the experiment on HOP-62, > 100 µM (inactive); with TK-10, > 100 µM (inactive); with MDA-N it was 39.7 µM (inactive); in the experiment with SK-MEL-28, > 100 µM (inactive). Further, the GI50 with SF-295 was > 100 µM (inactive).

For `Cc1cc2nc3c(N)nn(CCCN(C)C)c3nc2cc1C`, the GI50 is > 100 µM (inactive) in the experiment on SNB-75; 30.1 µM (inactive) in the experiment with M14; 60.3 µM (inactive) in the experiment with ACHN; > 100 µM (inactive) with SF-268; 38.3 µM (inactive) in the experiment on HT-29; > 100 µM (inactive) with OVCAR-5. The GI50 with UO-31 is 46.6 µM (inactive); in the experiment on SN12C, > 100 µM (inactive); with T47D, > 100 µM (inactive); in the experiment with CAKI-1 it was > 100 µM (inactive); with BT-549 it was > 100 µM (inactive); with KM12, 93.8 µM (inactive). Besides, the GI50 was > 100 µM (inactive) in the experiment with NCI-H23; > 100 µM (inactive) with HOP-62; 71.6 µM (inactive) with TK-10; > 100 µM (inactive) in the experiment with SK-MEL-28; > 100 µM (inactive) with SF-295.

As to `O=C1C=CC=C/C1=C1\N=C(c2ccccc2OCC(=O)c2ccc(Br)cc2)SS1`, the GI50 is 8.93 µM (inactive) in the experiment on SNB-75; 73.3 µM (inactive) with M14; 62.7 µM (inactive) with ACHN; 32 µM (inactive) in the experiment with SF-268; > 100 µM (inactive) with HT-29; > 100 µM (inactive) in the experiment on OVCAR-5. For the same molecule, the GI50 with UO-31 is > 100 µM (inactive); in the experiment with SN12C, > 100 µM (inactive); in the experiment with T47D, > 100 µM (inactive); in the experiment on IGROV-1 it was 9.23 µM (inactive); in the experiment with CAKI-1 it was 34.6 µM (inactive); in the experiment with BT-549, 13.3 µM (inactive). The GI50 in the experiment on KM12 is > 100 µM (inactive); in the experiment on NCI-H23, 35.2 µM (inactive); in the experiment on HOP-62, 4.08 µM (inactive); with TK-10 it was 13.5 µM (inactive); in the experiment with MDA-N, > 100 µM (inactive); in the experiment on SK-MEL-28, > 100 µM (inactive). The GI50 in the experiment on SF-295 is 28.2 µM (inactive).

As for `NC1=CN2c3ccccc3N(CC(=O)O)C2C=C1` (configuration not stated), the GI50 in the experiment with SNB-75, with M14, in the experiment on ACHN, with SF-268, with HT-29 and in the experiment with SR was > 100 µM (inactive) in each case. Moreover, the GI50 with OVCAR-5, in the experiment on UO-31, with T47D, in the experiment on IGROV-1, in the experiment with CAKI-1 and in the experiment with BT-549 was > 100 µM (inactive) each time. Moreover, the GI50 in the experiment with KM12, in the experiment with NCI-H23, with HOP-62, with TK-10, with SK-MEL-28 and in the experiment with SF-295 was > 100 µM (inactive) in each case.

Consider `Cc1ccc(/N=N/C(=NNC(=O)c2ccc(C)cc2)c2ccc(N(C)C)cc2)cc1`, for which the GI50 was 24.8 µM (inactive) in the experiment on M14; 66.4 µM (inactive) in the experiment on ACHN; 38.5 µM (inactive) in the experiment on SF-268; 31.1 µM (inactive) with HT-29; 17.9 µM (inactive) in the experiment with SR; 51.8 µM (inactive) in the experiment with OVCAR-5. In addition, the GI50 in the experiment with UO-31 was 26.1 µM (inactive); in the experiment with SN12C, 23.2 µM (inactive); with T47D it was 71.3 µM (inactive); with IGROV-1 it was 29.3 µM (inactive); in the experiment on CAKI-1, 23 µM (inactive); in the experiment on BT-549 it was 26.2 µM (inactive). Moreover, the GI50 is 16.9 µM (inactive) with KM12; 24.3 µM (inactive) with NCI-H23; 64.7 µM (inactive) in the experiment on TK-10; 19.8 µM (inactive) with MDA-N; 36 µM (inactive) with SK-MEL-28; 26.4 µM (inactive) in the experiment with SF-295.

For `Cc1nc2ccccc2n1Cc1ccc(NC(=S)NC2CCCCC2)cc1`, the GI50 with SNB-75 was 24 µM (inactive); with M14, 30.1 µM (inactive); with ACHN it was 4.49 µM (inactive); with SF-268, 17.2 µM (inactive); in the experiment on HT-29 it was 30.3 µM (inactive); in the experiment with OVCAR-5, > 100 µM (inactive). Moreover, the GI50 is 41 µM (inactive) in the experiment on UO-31; 7.03 µM (inactive) in the experiment on SN12C; 5.74 µM (inactive) in the experiment with T47D; 20 µM (inactive) in the experiment on IGROV-1; 38 µM (inactive) in the experiment with CAKI-1; 15.4 µM (inactive) in the experiment on BT-549. Besides, the GI50 in the experiment with KM12 is 24.3 µM (inactive); in the experiment with NCI-H23, 17.5 µM (inactive); in the experiment on HOP-62 it was > 75 µM (inactive); with TK-10, > 100 µM (inactive); in the experiment on MDA-N, 5.79 µM (inactive); in the experiment on SK-MEL-28, 29.7 µM (inactive). Moreover, the GI50 in the experiment on SF-295 is 10.1 µM (inactive).

On to `COc1ccc(/C=N/n2c(C)n[nH]c2=O)cc1`, for which the GI50 in the experiment on SNB-75, in the experiment with M14, in the experiment with ACHN, in the experiment with SF-268, in the experiment with HT-29 and in the experiment with OVCAR-5 was > 100 µM (inactive) throughout. The GI50 in the experiment on UO-31, in the experiment on SN12C, in the experiment on T47D, with CAKI-1, in the experiment on BT-549 and with KM12 was > 100 µM (inactive) in each case. The GI50 in the experiment on NCI-H23, with HOP-62, in the experiment with MDA-N, in the experiment on SK-MEL-28 and in the experiment on SF-295 was > 100 µM (inactive) throughout.

For the molecule `Clc1ccc2c(NCCNC3CCCCC3)ccnc2c1`, the GI50 is 4.63 µM (inactive) in the experiment with SNB-75; 1.77 µM (inactive) with M14; 12.5 µM (inactive) in the experiment with ACHN; 9.64 µM (inactive) with SF-268; 3.15 µM (inactive) with HT-29; 14.9 µM (inactive) in the experiment with OVCAR-5. The GI50 in the experiment on UO-31 was 2.95 µM (inactive); with SN12C it was 16.2 µM (inactive); with T47D, 4.2 µM (inactive); with IGROV-1, 11.8 µM (inactive); in the experiment with CAKI-1, 5.41 µM (inactive); with BT-549 it was 10.5 µM (inactive). In addition, the GI50 in the experiment on KM12 is 6.28 µM (inactive); in the experiment with NCI-H23 it was 15.7 µM (inactive); in the experiment on HOP-62, 11.9 µM (inactive); in the experiment on TK-10 it was 2.7 µM (inactive); in the experiment with MDA-N, 2.29 µM (inactive); in the experiment on SK-MEL-28, 1.86 µM (inactive). In addition, the GI50 in the experiment on SF-295 was 3.34 µM (inactive).

For the origin of these results see ChEMBL document CHEMBL1201862, “PubChem BioAssay data set” (2004).
